{
  "source": "patent US7256192B2",
  "about": "“Aromatic diamide derivatives, chemicals for agricultural or horticultural use and usage thereof” (Nihon Nohyaku Co., Ltd., priority 1999, dated 2007)",
  "test_system": "common cutworm (Spodoptera litura)",
  "experiment": "Insecticidal effect on common cutworm (Test Example 2)",
  "format": "in vivo",
  "conditions": "50 ppm; cabbage leaf immersed about 30 seconds; second-instar larvae; eight days after the inoculation; 25° C.",
  "description": "Insecticidal effect on common cutworm (Spodoptera litura)\nA piece of cabbage leaf (cultivar: Shikidori) was immersed for about 30 seconds in a liquid chemical prepared by diluting a preparation containing each compound listed in Table 1 or Table 2, as an active ingredient to adjust the concentration to 50 ppm. After air-drying, the piece was placed in a plastic Petri dish with a diameter of 9 cm and inoculated with second-instar larvae of common cutworm, after which the dish was closed and then allowed to stand in a room thermostated at 25° C. Eight days after the inoculation, the dead and alive were counted and the mortality was calculated according to the following equation, whereby the insecticidal effect was judged according to the criterion shown in Test Example 1. The test was carried out with three replications of 10 insects.",
  "data": [
    {"molecule": "CCN(CC)C(=O)OCC(C)NC(=O)c1c(I)cccc1C(=O)Nc1ccc(C(F)(C(F)(F)F)C(F)(F)F)nc1C", "note": "(racemic) [2-32]", "values": [
      {"measurement": "insecticidal activity (mortality rating)", "result": "B or higher"}
    ]},
    {"molecule": "CCNC(=O)OCC(C)NC(=O)c1c(I)cccc1C(=O)Nc1ccc(C(F)(C(F)(F)F)C(F)(F)F)nc1Cl", "note": "(racemic) [2-39]", "values": [
      {"measurement": "insecticidal activity (mortality rating)", "result": "B or higher"}
    ]},
    {"molecule": "CCNC(=O)OCC(C)NC(=O)c1c(I)cccc1C(=O)Nc1ccc(OC(C(F)(F)F)C(F)(F)F)nc1C", "note": "(racemic) [2-47]", "values": [
      {"measurement": "insecticidal activity (mortality rating)", "result": "B or higher"}
    ]},
    {"molecule": "COc1ccc(CNC(=O)OCC(C)NC(=O)c2c(I)cccc2C(=O)Nc2ccc(OC(C(F)(F)F)C(F)(F)F)nc2C)cc1", "note": "(racemic) [2-72]", "values": [
      {"measurement": "insecticidal activity (mortality rating)", "result": "B or higher"}
    ]},
    {"molecule": "CNC(=O)OCC(C)(C)NC(=O)c1c(I)cccc1C(=O)Nc1ccc(C(F)(C(F)(F)F)C(F)(F)F)nc1C", "note": "[2-35]", "values": [
      {"measurement": "insecticidal activity (mortality rating)", "result": "B or higher"}
    ]},
    {"molecule": "CCOC(=O)NCC(C)(C)NC(=O)c1c(I)cccc1C(=O)Nc1ccc(C(F)(F)C(F)(F)F)cc1C", "note": "[compound 19]", "values": [
      {"measurement": "insecticidal activity (mortality rating)", "result": "B or higher"}
    ]},
    {"molecule": "COC(=O)NCC(C)NC(=O)c1c(I)cccc1C(=O)Nc1ccc(C(F)(C(F)(F)F)C(F)(F)F)cc1C", "note": "(stereo not shown) [compound 22]", "values": [
      {"measurement": "insecticidal activity (mortality rating)", "result": "B or higher"}
    ]},
    {"molecule": "CC(=O)NCC(C)(C)NC(=O)c1c(I)cccc1C(=O)Nc1ccc(C(F)(C(F)(F)F)C(F)(F)F)cc1C", "note": "[compound 28]", "values": [
      {"measurement": "insecticidal activity (mortality rating)", "result": "B or higher"}
    ]},
    {"molecule": "Cc1cc(C(F)(C(F)(F)F)C(F)(F)F)ccc1NC(=O)c1cccc(I)c1C(=O)NC(C)(C)CNC(=O)C1CC1", "note": "[compound 29]", "values": [
      {"measurement": "insecticidal activity (mortality rating)", "result": "B or higher"}
    ]},
    {"molecule": "Cc1cc(C(F)(C(F)(F)F)C(F)(F)F)ccc1NC(=O)c1cccc(I)c1C(=O)NCC1COC(C)(C)O1", "note": "(stereo not shown) [compound 51]", "values": [
      {"measurement": "insecticidal activity (mortality rating)", "result": "B or higher"}
    ]},
    {"molecule": "COCCC(C)NC(=O)c1c(I)cccc1C(=O)Nc1ccc(C(F)(C(F)(F)F)C(F)(F)F)cc1C", "note": "(stereo not shown) [compound 59]", "values": [
      {"measurement": "insecticidal activity (mortality rating)", "result": "B or higher"}
    ]},
    {"molecule": "Cc1cc(C(F)(C(F)(F)F)C(F)(F)F)ccc1NC(=O)c1cccc(I)c1C(=O)NC(C)CCOCC(C)C", "note": "(stereo not shown) [compound 74]", "values": [
      {"measurement": "insecticidal activity (mortality rating)", "result": "B or higher"}
    ]},
    {"molecule": "Cc1cc(C(F)(C(F)(F)F)C(F)(F)F)ccc1NC(=O)c1cccc(I)c1C(=O)NC(C)COC(=O)N(C)C", "note": "(stereo not shown) [compound 88]", "values": [
      {"measurement": "insecticidal activity (mortality rating)", "result": "B or higher"}
    ]},
    {"molecule": "CCCNC(=O)OCC(C)(C)NC(=O)c1c(I)cccc1C(=O)Nc1ccc(C(F)(C(F)(F)F)C(F)(F)F)cc1C", "note": "[compound 129]", "values": [
      {"measurement": "insecticidal activity (mortality rating)", "result": "B or higher"}
    ]},
    {"molecule": "CCCNC(=O)OCC(C)(C)NC(=O)c1c(I)cccc1C(=O)Nc1ccc(C(F)(C(F)(F)F)C(F)(F)F)cc1Cl", "note": "[compound 130]", "values": [
      {"measurement": "insecticidal activity (mortality rating)", "result": "B or higher"}
    ]},
    {"molecule": "Cc1cc(C(F)(C(F)(F)F)C(F)(F)F)ccc1NC(=O)c1cccc(I)c1C(=O)NC(C)COC(=O)NC1CC1", "note": "(stereo not shown) [compound 133]", "values": [
      {"measurement": "insecticidal activity (mortality rating)", "result": "B or higher"}
    ]},
    {"molecule": "Cc1cc(OC(F)(F)F)ccc1NC(=O)c1cccc(I)c1C(=O)NC(C)COC(=O)NC1CC1", "note": "(stereo not shown) [compound 134]", "values": [
      {"measurement": "insecticidal activity (mortality rating)", "result": "B or higher"}
    ]},
    {"molecule": "COCCNC(=O)OCC(C)(C)NC(=O)c1c(I)cccc1C(=O)Nc1ccc(C(F)(C(F)(F)F)C(F)(F)F)cc1C", "note": "[compound 172]", "values": [
      {"measurement": "insecticidal activity (mortality rating)", "result": "B or higher"}
    ]},
    {"molecule": "CSCCCNC(=O)OCC(C)(C)NC(=O)c1c(I)cccc1C(=O)Nc1ccc(C(F)(C(F)(F)F)C(F)(F)F)cc1C", "note": "[compound 184]", "values": [
      {"measurement": "insecticidal activity (mortality rating)", "result": "B or higher"}
    ]},
    {"molecule": "Cc1cc(C(F)(C(F)(F)F)C(F)(F)F)ccc1NC(=O)c1ccc(Cl)c(Cl)c1C(=O)NC(C)COC(=O)NCc1ccccc1", "note": "(stereo not shown) [compound 229]", "values": [
      {"measurement": "insecticidal activity (mortality rating)", "result": "B or higher"}
    ]},
    {"molecule": "CCNC(=O)OCC(C)NC(=O)c1c(I)cccc1C(=O)Nc1ccc(C(F)(F)C(F)(F)C(F)(F)F)cc1C", "note": "(stereo not shown) [compound 272]", "values": [
      {"measurement": "insecticidal activity (mortality rating)", "result": "B or higher"}
    ]},
    {"molecule": "CCNC(=O)OCC(C)NC(=O)c1c(I)cccc1C(=O)Nc1ccc(C(OCC)(C(F)(F)F)C(F)(F)F)cc1C", "note": "(stereo not shown) [compound 279]", "values": [
      {"measurement": "insecticidal activity (mortality rating)", "result": "B or higher"}
    ]}
  ]
}
